Here are results for three molecules from patent US9061981B2, “Diphenyl substituted cyclohexane derivatives, useful as modulators of the estrogen receptors beta” (Acadia Pharmaceuticals Inc., priority 2011, dated 2015).

Series [1] has as its target T1, ERβ (Homo sapiens, UniProt Q92731). Briefly: R-SAT functional assay, ERβ. Type of series: cell-based. Also on record: expressed in transfected cells; host or cells: transient transfection.
The target in series [2] is T2, ERα (Homo sapiens, UniProt P03372).
T2 sequence (P03372 1-595): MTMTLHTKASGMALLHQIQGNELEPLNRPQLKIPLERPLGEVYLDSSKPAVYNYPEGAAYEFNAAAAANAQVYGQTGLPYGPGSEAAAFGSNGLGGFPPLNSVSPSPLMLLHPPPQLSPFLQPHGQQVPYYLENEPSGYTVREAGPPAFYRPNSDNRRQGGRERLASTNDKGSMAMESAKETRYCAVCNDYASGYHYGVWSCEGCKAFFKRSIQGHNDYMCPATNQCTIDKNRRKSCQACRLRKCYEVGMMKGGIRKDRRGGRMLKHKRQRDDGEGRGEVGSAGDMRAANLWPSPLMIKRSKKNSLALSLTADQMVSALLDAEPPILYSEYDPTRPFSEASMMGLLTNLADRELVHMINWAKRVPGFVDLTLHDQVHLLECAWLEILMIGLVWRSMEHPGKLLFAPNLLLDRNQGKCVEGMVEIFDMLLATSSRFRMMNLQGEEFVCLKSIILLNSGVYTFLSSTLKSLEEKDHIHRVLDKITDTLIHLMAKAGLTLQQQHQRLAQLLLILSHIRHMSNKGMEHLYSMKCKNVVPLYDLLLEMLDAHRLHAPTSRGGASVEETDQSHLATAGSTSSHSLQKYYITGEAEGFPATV
Put plainly: Luciferase reporter gene assay (3*ERE) in HEK293 cells, ERα. It is filed as cell-based. Also on record: expressed in transfected cells; host or cells: transient transfection. To be noted: 48 hours; for EC50: na = not active, read-out: Luciferase Erα pEC50 (converted). The procedure:
HEK293 cells were grown to 70% confluency in DMEM containing 10% calf serum (Hyclone) prior to transfection. On the day of transfection (day 1), expression vectors for ERα or ERβ were cotransfected along a construct containing a synthetic 3*ERE upstream of the luciferase gene (Panomics), using Polyfect (Qiagen) per manufacturer's recommendations (ERE being estrogen response element). Sixteen hours post-transfection, cells were incubated in serum free DMEM. […] Cells extracts were then obtained by lyzing and the Luciferase activity measured, all of these steps performed using a commercially available kit (Promega).

Series [3] in a line: Non-specific binding assessment across tissue-free inserts. Type of series: in vitro ADME. To be noted: tissue-free insert, DPBS; for recovery at 120 min, 1 μM: tissue-free Millipore Millicell culture plate inserts; for Papp at 120 min, 1 μM: read-out: apparent permeability coefficient (Papp) through cell-free insert. The procedure: Non-specific binding assessment (NSB) was conducted in a tissue-free plate containing Millipore Millicell culture plate inserts that were the same ones that were used in the permeation study across the culture tissues. Each of the tested compounds was dosed at 1 μM with DPBS buffer. Sampling time for the receiver chambers was 120 minutes after dosing, while the donor sides were sampled at 0 and 120 minutes after dosing. The NSB assessments consisted of the permeation rates across tissue-free inserts and the percent recovery by calculating the mass balance of the test campounds at the end of the experiment. The recovery assessment was used to assess the non-specific binding property of the tested compounds to the assay apparatus.

For series [4], the target named is T1, ERβ. Put plainly: R-SAT functional assay, ERβ. Type of series: cell-based. Also on record: expressed in transfected cells; host or cells: transient transfection. The settings on record: NIH3T3, read-out: R-SAT Erβ % Eff. The text has this:
R-SAT® (Receptor Selection and Amplification Technology) is a cell-based functional assay that allows one to monitor receptor-dependent proliferative responses and has been described elsewhere. […] This process is achieved by partial cellular transformation via loss of contact inhibition and growth factor dependency. Monitoring is achieved by transfecting the cells with a β-galactosidase reporter gene vector whose expression is under a constitutively active promoter. Briefly, NIH-3T3 fibroblasts were plated overnight in 96-wells plates in DMEM 10% calf serum (Hyclone) and grown to 60-70% confluency prior to transfection. Transient transfections were performed using Polyfect (Qiagen) according to manufacturer's instructions. Typically a transfection mix would consist of the receptor and the β-galactosidase expression vectors. Sixteen hours post-transfection, cells were incubated with different doses of ligand in DMEM containing 30% Ultraculture (Hyclone) and 0.4% calf serum (Hyclone) to generate a dose response curve. […] Plates were read using a microplate reader at 420 nm. Data from R-SAT® assays were fit to the equation: r=A+B(x/(x+c)), where A=minimum response, B=maximum response minus minimum response, c=EC50, r=response, and x=concentration of ligand. Curves were generated using the curve fitting softwares Excel Fit and GraphPad Prism (San Diego, Calif.). Luciferase Reporter Gene Assay

Series [5] concerns the target T2, ERα. Put plainly: Competitive 3H-estradiol binding assay, ERα. To be noted: 1 nM 3H-estradiol, HEK293T cytosolic extract; read-out: Binding ERα pKi (converted). As to the method:
HEK293T cells were transiently transfected for 48 hours with expression vectors encoding ERα or ERβ, before being serum starved for 4-6 hours. Cells were then harvested by scraping in ice-cold PBS and subsequently lysed using a cold buffer containing 10 mM Tris pH 7.4, 1 mM EDTA, 1 mM DTT before being subjected to polytron twice for 10 seconds. Cytosolic extracts were isolated by centrifugation at 15000 g for 30 minutes at 4° C. Competitive binding of the test compounds or the estradiol control was performed on 20 μL extract by overnight incubation at 4° C. in a total volume of 100 μL containing 1 nM ^3H-estradiol (Perkin Elmer, Boston, Mass.). The bound fraction was separated from the unbound one by the addition of 100 μL of Dextran coated charcoal, incubated for 10 minutes and subsequent centrifugation at 1000 rpm for 10 minutes. Samples (100 μL per sample) were then analyzed by liquid scintillation. Data was then analyzed using the curve fitting software GraphPad Prism.

T1 sequence (Q92731 whole entry, species assumed): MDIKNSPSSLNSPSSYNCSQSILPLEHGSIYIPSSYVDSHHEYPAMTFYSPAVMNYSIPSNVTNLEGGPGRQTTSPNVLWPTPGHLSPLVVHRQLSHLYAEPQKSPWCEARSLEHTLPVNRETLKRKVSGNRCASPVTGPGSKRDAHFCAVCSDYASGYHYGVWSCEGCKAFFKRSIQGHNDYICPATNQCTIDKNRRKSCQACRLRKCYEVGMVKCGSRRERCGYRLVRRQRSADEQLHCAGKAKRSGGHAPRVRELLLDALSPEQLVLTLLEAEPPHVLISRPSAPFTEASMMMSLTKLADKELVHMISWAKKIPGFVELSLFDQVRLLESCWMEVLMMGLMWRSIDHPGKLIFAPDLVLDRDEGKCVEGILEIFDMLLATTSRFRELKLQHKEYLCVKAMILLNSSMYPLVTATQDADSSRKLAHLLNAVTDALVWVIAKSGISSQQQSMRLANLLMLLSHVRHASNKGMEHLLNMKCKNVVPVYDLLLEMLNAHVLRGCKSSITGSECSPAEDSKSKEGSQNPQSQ

In turn, `Oc1ccc(C2(c3ccccc3F)CCC(F)(F)CC2)cc1` [Compound 8, 4-(4,4-Difluoro-1-(2-fluorophenyl)cyclohexyl)phenol] showed an EC50 on ERβ [1] of 1.26 nM. Besides, at ERα [2], the “Luciferase Erα % Eff” value is listed as 32% and the EC50 was 631 nM. Moreover, in series [3], the recovery at 120 min, 1 μM amounted to 57% and the Papp at 120 min, 1 μM came to 19.8 ×10⁻⁶ cm/s. In addition, the Emax on ERβ [4] is 69%. For the same molecule, at ERα [5], the Ki was 79.4 nM.

On ERβ [1], `Oc1ccc(C2(c3ccccc3Cl)CCCCC2)cc1F` [Compound 957] showed an EC50 of 1.58 nM. Moreover, on ERα [2], the “Luciferase Erα % Eff” value came to 13%. In addition, in series [3], the recovery at 120 min, 1 μM was determined as 18% and the Papp at 120 min, 1 μM is 0.881 ×10⁻⁶ cm/s. Besides, the Emax at ERβ [4] is 94%. For the same molecule, the Ki at ERα [5] was 200 nM.

`Oc1ccc(C2(c3cccc(F)c3Cl)CCCCC2)cc1` [Compound 623] showed an EC50 at ERβ [1] of 6.31 nM. Besides, at ERα [2], the “Luciferase Erα % Eff” value came out at 15% and the EC50 was 398 nM. For the same molecule, in series [3], the recovery at 120 min, 1 μM was determined as 22% and the Papp at 120 min, 1 μM was determined as 1.17 ×10⁻⁶ cm/s. For the same molecule, the Emax on ERβ [4] was 89%. Further, the Ki at ERα [5] is 794 nM.
